Assay results as given in PMC6652808, “The Inhibitory Effect of GlmU Acetyltransferase Inhibitor TPSA on Mycobacterium tuberculosis May Be Affected Due to Its Methylation by Methyltransferase Rv0560c” (Frontiers in Cellular and Infection Microbiology, 2019).
Read-outs that look alike come from different tables or passages of the source.

How the values were obtained:
Test in all cases: biochemical
[1] = target: T1, GlmU (Mycobacterium tuberculosis, UniProt P9WMN3); set-up: DTNB colorimetric assay of GlmU acetyltransferase activity, absorbance at 405 nm
[2] = target: T1, GlmU; set-up: Inhibition constants from double reciprocal plots, DTNB acetyltransferase assay with varied substrate
[3] = target: T1, GlmU; set-up: Inhibition constants from double reciprocal plots, DTNB acetyltransferase assay with varied substrate; remark: listed apart in the source
[4] = target: T1, GlmU; set-up: Inhibition constants from double reciprocal plots, DTNB acetyltransferase assay with varied substrate; remark: listed apart in the source

T1 sequence (P9WMN3 2-495): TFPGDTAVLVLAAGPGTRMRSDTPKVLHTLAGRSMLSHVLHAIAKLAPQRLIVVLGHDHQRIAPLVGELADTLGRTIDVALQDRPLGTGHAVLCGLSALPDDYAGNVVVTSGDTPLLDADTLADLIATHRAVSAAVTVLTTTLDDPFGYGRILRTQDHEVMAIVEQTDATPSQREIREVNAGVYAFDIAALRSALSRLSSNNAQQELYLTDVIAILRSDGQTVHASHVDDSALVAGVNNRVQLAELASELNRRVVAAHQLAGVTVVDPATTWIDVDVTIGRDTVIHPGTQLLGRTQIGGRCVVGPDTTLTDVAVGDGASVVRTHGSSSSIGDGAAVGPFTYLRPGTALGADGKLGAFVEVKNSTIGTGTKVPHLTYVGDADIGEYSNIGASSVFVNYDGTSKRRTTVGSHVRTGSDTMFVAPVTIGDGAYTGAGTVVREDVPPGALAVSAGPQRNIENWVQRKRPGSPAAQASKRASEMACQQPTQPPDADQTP

| Compound | IC50 [1] | Ki [2] | Ki [3] | Ki [4] |
| --- | --- | --- | --- | --- |
| O=c1oc2ccccc2c2c1Sc1ccccc1N2 [BCTZ, 6,12-dihydrobenzo[b]chromeno[4,3-e][1,4]thiazin-6-one] | 61.7 µM | 82.8 µM | 81.6 µM |  |
| O=C1C=CC(=O)N1c1cccc(N2C(=O)C=CC2=O)c1 [DHPP, 1-[3-(2,5-dioxo-2,5-dihydro-1H-pyrrol-1-yl)phenyl]-2,5-dihydro-1H-pyrrole-2,5-dione] | 10.3 µM | 26.3 µM |  | 26.4 µM |
| Cc1ccc(C)n1-c1ccsc1C(=O)O [MPTC, 3-(2,5-dimethyl-1H-pyrrol-1-yl)thiophene-2-carboxylic acid] | 159 µM |  |  |  |
| O=C1NC(=S)SC1=Cc1ccc(OCc2ccc([N+](=O)[O-])cc2)cc1 [NBTT, 5-{4-[(4-nitrobenzyl)oxy]benzylidene}-2-thioxo-1,3-thiazolan-4-one] | 65.1 µM | 41.3 µM |  | 40.2 µM |
| O=C1CC(=O)c2c1cccc2[N+](=O)[O-] [NID, 4-nitroindane-1,3-dione] | 124 µM |  |  |  |
